From patent US5792780A, “Azole compounds, their production and use” (Takeda Chemical Industries, Ltd., priority 1993, dated 1998)

Assays:
[1] = test system: Aspergillus fumigatus IFO 6344; experiment: growth inhibition zone, paper disc agar diffusion; assay type: cell-based; conditions: IFO6344, 48 h, Medium A, 1000 μg/ml, 28° C., two days, read-out: Diameter of growth inhibition zone
Method: (§1) Evaluation of the antifungal activities of the compound of the present invention was conducted by the following method: a sheet of filter paper disc (manufactured by Toyo Seisakusho, 8 mm in diameter) soaked in a 1000 μg/ml solution of a compound of the present invention in methanol was placed on an agar plate containing various fungi, which was incubated at 28° C. for two days, and the diameter of the growth inhibition zone around the filter paper disc was measured. The following culture media were used:
(§2) A: yeast nitrogen base agar medium (pH 7.0)
(§3) B: peptone-yeast extract-glucose agar medium (pH 7.0)

[2] = test system: Aspergillus niger IFO 4066; experiment: growth inhibition zone, paper disc agar diffusion; assay type: cell-based; conditions: IFO4066, 48 h, Medium A, 1000 μg/ml, 28° C., two days, read-out: Diameter of growth inhibition zone
Method: as §1, §2, §3

[3] = test system: Candida albicans IFO 0583; experiment: growth inhibition zone, paper disc agar diffusion; assay type: cell-based; conditions: IFO0583, 48 h, Table 5, Medium A, 1000 μg/ml, 28° C., two days, read-out: Diameter of growth inhibition zone
Method: as §1, §2, §3

[4] = test system: Candida utilis IFO 0619; experiment: growth inhibition zone, paper disc agar diffusion; assay type: cell-based; conditions: Williopsis jadinii, IFO0619, 48 h, Medium A, 1000 μg/ml, 28° C., two days, read-out: Diameter of growth inhibition zone
Method: as §1, §2, §3

[5] = test system: Cryptococcus neoformans IFO 0410; experiment: growth inhibition zone, paper disc agar diffusion; assay type: cell-based; conditions: IFO0410, 48 h, Medium A, 1000 μg/ml, 28° C., two days, read-out: Diameter of growth inhibition zone
Method: as §1, §2, §3

[6] = test system: Microsporum gypseum IFO 6076; experiment: growth inhibition zone, paper disc agar diffusion; assay type: cell-based; conditions: Nannizzia gypsea, IFO6076, 48 h, Medium B, 1000 μg/ml, 28° C., two days, read-out: Diameter of growth inhibition zone
Method: as §1, §2, §3

[7] = test system: Trichophyton mentagrophytes IFO 7522; experiment: growth inhibition zone, paper disc agar diffusion; assay type: cell-based; conditions: IFO7522, 48 h, Medium B, 1000 μg/ml, 28° C., two days, read-out: Diameter of growth inhibition zone
Method: as §1, §2, §3

[8] = test system: Trichophyton rubrum IFO 5467; experiment: growth inhibition zone, paper disc agar diffusion; assay type: cell-based; conditions: IFO5467, 48 h, Medium B, 1000 μg/ml, 28° C., two days, read-out: Diameter of growth inhibition zone
Method: as §1, §2, §3

[9] = test system: Candida albicans TA; experiment: protective effect against experimental infection in mice (survival rate 7 days after infection); assay type: in vivo, Crj:CDF1 mice; conditions: po, 168 h, Table 7, P.O. once immediately after infection, 0.2% CMC, survival 7 days after infection
Method: (§4) Test Method: Five-week-old Crj:CDF1 mice were inoculated with the minimum lethal dose of Candida albicans TA intravenously. The test compound was suspended in a solution of 0.2% or 0.5% sodium carboxymethylcellulose (CMC). The suspension was administered orally once immediately after infection. The activity was expressed in terms of ED50 values calculated by the Reed and Muench method from the survival rate 7 days after infection.
as §4, with “of” for “of 0.2% or”

Row | Compound | zone of inhibition at 1000 µg/mL [1] [mm] | zone of inhibition at 1000 µg/mL [2] [mm] | zone of inhibition at 1000 µg/mL [3] [mm] | zone of inhibition at 1000 µg/mL [4] [mm] | zone of inhibition at 1000 µg/mL [5] [mm] | zone of inhibition at 1000 µg/mL [6] [mm] | zone of inhibition at 1000 µg/mL [7] [mm] | zone of inhibition at 1000 µg/mL [8] [mm] | ED50 [9] [mg/kg]
1 | C[C@@H](N1CCN(c2ccc(F)cc2F)C1=O)[C@](O)(Cn1cncn1)c1ccc(F)cc1F [Compound 2, 1-[(1R,2R)-2-(2,4-difluorophenyl)-2-hydroxy-1-methyl-3-(1H-1,2,4-triazol-1-yl)propyl]-3-(2,4-difluorophenyl)-2-imidazolidinone] | 30 | 27 | 45 | 29 | 31 | 41 | 40 | 50 | –
2 | C[C@@H](N1CCN(c2ccc(OC(F)(F)F)cc2)C1=O)[C@](O)(Cn1cncn1)c1ccc(F)cc1F [Compound 1, 1-[(1R,2R)-2-(2,4-difluorophenyl)-2-hydroxy-1-methyl-3-(1H-1,2,4-triazol-1-yl)propyl]-3-(4-trifluoromethoxyphenyl)-2-imidazolidinone] | 31 | 24 | 36 | 25 | 27 | 49 | 48 | 47 | 1.4
3 | C[C@@H](N1CCN(c2ccc(C(F)(F)F)cc2)C1=O)[C@](O)(Cn1cncn1)c1ccc(F)cc1F [Compound 4, 1-[(1R,2R)-2-(2,4-difluorophenyl)-2-hydroxy-1-methyl-3-(1H-1,2,4-triazol-1-yl)propyl]-3-(4-trifluoromethylphenyl)-2-imidazolidinone] | 34 | 26 | 41 | 31 | 29 | 42 | 39 | 43 | 0.65
